Patent US6107316A, “Method for treating protozoal infections” (priority 1998, dated 2000)
Converted amounts (≈) assume the structure as drawn. Like-named read-outs stand apart in the source and are kept apart here. Values belong to the compound of their own block, whether it stands above or below them.

Legend:
[1] = tested on: Leishmania major; test: in vitro growth inhibitory activity against L. major promastigotes; format: cell-based
From the text: 35, pp. 2198-2202 (1991).

[2] = tested on: Giardia lamblia; test: in vitro growth inhibitory activity against Giardia lamblia; format: cell-based; conditions: Giardia duodenalis; concentration required to inhibit growth by 50%
Description: 35, pp. 2198-2202 (1991). EC50 values for test compounds, expressed in parts per million (ppm), were calculated from dose response curves and are presented in Table 4. As used herein, the terminology "EC50" means the concentration of test compound required to inhibit growth by 50% are compared to a control lacking the test compound. Metronidazole was included as a standard in the tests for comparative purposes.

[3] = tested on: Tetrahymena pyriformis; test: in vitro growth inhibitory activity against the ciliate Tetrahymena pyriformis; format: cell-based, Tetrahymena pyriformis (ATCC strain 30005); conditions: read-out: EC50 Tetrahymena pyriformis
Description: Compounds were evaluated for in vitro growth inhibitory activity against the ciliate Tetrahymena pyriformis, which was used as an indicator organism for the Apicomplexia since by several criteria the ciliates and Apicomplexa are closely related (Edlind T. D. et al., Mol. Phylogenet. Evol. vol. 5, pp. 359-367, 1996). T. pyriformis (ATCC strain 30005) was grown in 1 ml ATCC medium 357 at 25° C. in 4 ml polyallomer culture tubes without shaking. Compounds were dissolved in dimethylsufoxide (DMSO) and added to the cultures (containing 3,000 cells/ml) such that the final DMSO concentration was 0.1-0.3%. […] Parasitol. vol. 84, pp. 355-370, 1996) and Cryptosporidium parvum (Arrowood et al., FEMS Microbial. Lett., vol. 136, pp. 245-249, 1996) were tested for comparison.

[4] = tested on: Toxoplasma gondii; test: growth inhibition of T. gondii in HFF host cells ([3H]-uracil incorporation); format: cell-based; conditions: HFF host cells; for inhibition at 5 µg/mL / inhibition at 25 µg/mL: Toxoplasma gondii, read-out: % Inhibition; for inhibition at 25 µg/mL: 25.0 μg/ml
Description: (§1) Compounds were tested for it vitro growth inhibitory activity against Toxoplasma gondii replication in L929 (L929-ATCC CCL 1, mouse connective tissue) or HFF (human foreskin fibroblast) host cells using the [^3 H]-uracil incorporation technique as follows. Host cells were grown in 96-well flat-bottom microtiter plates at 37° C in a 5% carbon dioxide environment in modified Eagle's medium containing penicillin, streptomycin and 10% fetal equine serum. Wells containing a homogeneous confluent monolayer of host cells were infected with T. gondii tachyzoites at a ratio of 3 parasites per cell (approximately 6×10^4 tachyzoites per well containing 100 μl of medium). […] Two hours post infection, the cultures were washed to remove free parasites and the various dilutions of test compound were added. Cells were subsequently collected at 24, 48 and 72 hours. Four hours prior to each harvesting 50 Al of [^3 H]-uracil (1 μCi) was added. Cells were collected using a cell harvester and incorporated radioactivity was measured using a scintillation counter. […]

[5] = tested on: MDBKF5D2 cells; test: toxicity towards MDBKF5D2 host cells (MTS); conditions: 48 hours, 2880 min
Description: (§2) Compounds were tested for in vitro growth inhibitory activity against C. parvum grown in host MDBKF5D2 cells and for toxicity towards the host cells as follows. […] To test for toxicity towards the host cells, the media containing test compound (200 μl) were introduced into two wells of a 96 well microtiter plate containing confluent MDBKF5D2 cell monolayers and two wells without monolayers, and incubated at 37° C. in an 8% carbon dioxide environment. After 48 hours, the tetrazolium salt MTS (Owen's solution) and phenazine methosulfate were added to each well at concentrations of 333 μg/ml and 25 μM, respectively. The plate was returned to the incubator in the dark to develop for 2 hours, then 100 μl of each supernatant was transferred to a new microtiter plate and read spectrophotometrically in a plate reader at a wavelength of 490 nm. Percent toxicity was calculated by subtracting the mean optical density (OD) of the drug supernatants from the OD of medium control supernatants (no drug), dividing by the OD of the medium control, and multiplying by 100. To test for growth inhibitory activity against C. parvum, 3×10^4 oocysts per well were incubated in mentioned concentrations of each drug at 37° C. (8% CO2) on confluent MDBKF5D2 cell monolayers in 96 well microtiter plates. After 48 hours, the level of infection in each well was determined by means of an immunofluorescence assay. Percent inhibition of growth was calculated by subtracting the mean parasite count in the wells containing test compound from the mean parasite count in the medium control wells (no test compound), dividing by the mean parasite count in the medium control wells, and multiplying by 100. Paromomycin was included in the test as a standard.

[6] = tested on: Toxoplasma gondii; test: growth inhibition of T. gondii in L929 host cells ([3H]-uracil incorporation); format: cell-based; conditions: L929 host cells; for inhibition at 5 µg/mL / inhibition at 25 µg/mL: Toxoplasma gondii, read-out: % Inhibition; for inhibition at 25 µg/mL: 25.0 μg/ml
Description: as §1

[7] = tested on: Cryptosporidium parvum; test: growth inhibitory activity against C. parvum in host MDBKF5D2 cells (immunofluorescence); format: cell-based; conditions: for % Inhibition: 48 hours
Description: as §2

[8] = toxicity towards MDBKF5D2 host cells (MTS); conditions: bovine, mdbkf5d2 cells, Cytotoxicity (percent toxicity)
Description: as §2

[9] = cytotoxicity towards L929 host cells (Cell Titer 96); conditions: mouse, % Inhibition of host cell growth (values in parenthesis)
Description: (§3) Cytotoxicity of the test compounds towards host cells was determined using the Cell Titer 96™ it (Promega Corporation, Madison, Wis.) as follows. Cells were seeded at a concentration of 5×10^3 cells per well containing 100 μl of medium in 96-well flat-bottom microtiter plates and incubated at 37° C. in a 5% carbon dioxide environment for 4 hours. Dilutions of the test compounds prepared as described above were then added, and incubation continued for 24, 48 or 72 hours. Four hours before each of these time points the growth medium containing test compound was replaced with 100 μl of fresh medium followed by addition of 16 μl of the kit dye solution. After incubation at 37° C. for another 4 hours, 100 μl of the kit solubilization/stop solution was added to each well, the contents of the wells were mixed and the plates kept 1 hour at room temperature. The plates were then read spectrophotometrically in a plate reader at a wavelength of 570 nm. […] Atovaquone was included in the test as a standard.

[10] = cytotoxicity towards HFF host cells (Cell Titer 96); conditions: human, % Inhibition of host cell growth (values in parenthesis)
Description: as §3

SMILES: CCC(C)(NC(=O)c1cc(Cl)cc(Cl)c1)C(=O)CN=C=S (stereo not shown) [Compound 8]
EC50 [1]: 0.7 µg/mL (≈ 2.03 µM)
EC50 [2]: 0.2 µg/mL (≈ 0.579 µM)
EC50 ([3]; 24 h): 0.07 µg/mL (≈ 0.203 µM)

SMILES: CCC(C)(NC(=O)c1cc(Cl)cc(Cl)c1)C(=O)CCl (stereo not shown) [Compound 13]
% Inhibition ([4]; 0.5 μg/ml, 24 hours): 72.3%
% Inhibition ([4]; 0.5 μg/ml, 48 hours): 28.1%
% Inhibition ([4]; 0.5 μg/ml, 72 hours): 0%
% Inhibition ([4]; 5.0 μg/ml, 24 hours): 93.0%
% Inhibition ([4]; 5.0 μg/ml, 48 hours): 98.2%
% Inhibition ([4]; 5.0 μg/ml, 72 hours): 97.8%
Cytotoxicity (percent toxicity) ([5]; 0.1 μM): 0%
Cytotoxicity (percent toxicity) ([5]; 1.0 μM): 2.4%
Cytotoxicity (percent toxicity) ([5]; 10 μM): 4.3%
Cytotoxicity (percent toxicity) ([5]; 100 μM): 54.3%
% Inhibition ([6]; 0.5 μg/ml, 24 hours): 11.6%
% Inhibition ([6]; 0.5 μg/ml, 48 hours): 33.2%
% Inhibition ([6]; 0.5 μg/ml, 72 hours): 0%
% Inhibition ([6]; 5.0 μg/ml, 24 hours): 11.4%
% Inhibition ([6]; 5.0 μg/ml, 48 hours): 83.9%
% Inhibition ([6]; 5.0 μg/ml, 72 hours): 88.5%
% Inhibition ([7]; 0.1 μM): 9.9%
% Inhibition ([7]; 1.0 μM): 12.5%
% Inhibition ([7]; 10 μM): 15.7%
inhibition at 100 µM ([7]; Cryptosporidium parvum, 48 h): 87.5%

SMILES: CCC(C)(NC(=O)c1cc(F)c(F)c(F)c1)C(=O)CCl (stereo not shown) [Compound 11]
inhibition at 5 µg/mL ([4]; 24 h, 5.0 μg/ml, 24 hours): 73.4%
inhibition at 25 µg/mL ([4]; 24 h, 24 hours): 91.9%
inhibition at 5 µg/mL ([4]; 48 h, 5.0 μg/ml, 48 hours): 98.4%
inhibition at 25 µg/mL ([4]; 48 h, 48 hours): 98.8%
inhibition at 5 µg/mL ([4]; 72 h, 5.0 μg/ml, 72 hours): 97.7%
inhibition at 25 µg/mL ([4]; 72 h, 72 hours): 97.7%
cytotoxicity at 48 h, 0.1 µM ([8]; 0.1 μM): 0%
cytotoxicity at 48 h, 1 µM ([8]; 1.0 μM): 0%
cytotoxicity at 48 h, 10 µM ([8]; 10 μM): 0%
cytotoxicity at 48 h, 100 µM ([8]; 100 μM): 2.7%
inhibition at 24 h ([9]; L929, 5.0 μg/ml): 0%
inhibition at 48 h ([9]; L929, 5.0 μg/ml): 5.5%
inhibition at 72 h ([9]; L929, 5.0 μg/ml): 36.9%
inhibition at 24 h ([9]; L929, 25.0 μg/ml): 22.6%
inhibition at 48 h ([9]; L929, 25.0 μg/ml): 60.1%
inhibition at 72 h ([9]; L929, 25.0 μg/ml): 89.6%
inhibition at 24 h ([10]; 5.0 μg/ml): 2.1%
inhibition at 48 h ([10]; 5.0 μg/ml): 6.1%
inhibition at 72 h ([10]; 5.0 μg/ml): 0%
inhibition at 24 h ([10]; 25.0 μg/ml): 17.5%
inhibition at 48 h ([10]; 25.0 μg/ml): 20%
inhibition at 72 h ([10]; 25.0 μg/ml): 50.1%
inhibition at 5 µg/mL ([6]; L929, 24 h, 5.0 μg/ml, 24 hours): 21.5%
inhibition at 25 µg/mL ([6]; L929, 24 h, 24 hours): 25.6%
inhibition at 5 µg/mL ([6]; L929, 48 h, 5.0 μg/ml, 48 hours): 80.1%
inhibition at 25 µg/mL ([6]; L929, 48 h, 48 hours): 66.1%
inhibition at 5 µg/mL ([6]; L929, 72 h, 5.0 μg/ml, 72 hours): 95.4%
inhibition at 25 µg/mL ([6]; L929, 72 h, 72 hours): 73.6%
inhibition at 0.1 µM ([7]; Cryptosporidium parvum, 48 h, 0.1 μM): 5.6%
inhibition at 1 µM ([7]; Cryptosporidium parvum, 48 h, 1.0 μM): 18.1%
inhibition at 10 µM ([7]; Cryptosporidium parvum, 48 h, 10 μM): 23.9%
inhibition at 100 µM ([7]; Cryptosporidium parvum, 48 h): 86.2%

The next lines start with results.

EC50 [1]: 0.6 µg/mL (≈ 1.74 µM)
EC50 [2]: 0.05 µg/mL (≈ 0.145 µM)
SMILES: CCC(C)(NC(=O)c1cc(Cl)cc(Cl)c1)C(=O)CSC#N (stereo not shown) [Compound 7]
EC50 ([3]; 24 hours, 25° C.): 0.07 µg/mL (≈ 0.203 µM)

EC50 [1]: 0.6 µg/mL (≈ 1.67 µM)
EC50 [2]: 0.009 µg/mL (≈ 0.025 µM)
SMILES: CCC(C)(NC(=O)c1cc(Cl)c(N)c(C=NOC)c1)C(=O)CCl (stereo not shown) [Compound 6, 4-amino-3-chloro-5-methoxyiminomethyl-N-(3-chloro-1-ethyl-1-methyl-2-oxopropyl)benzamide]
EC50 ([3]; 24 hours, 25° C.): 0.02 µg/mL (≈ 0.0555 µM)

EC50 [1]: 0.2 µg/mL (≈ 0.448 µM)
EC50 [2]: 0.3 µg/mL (≈ 0.673 µM)
SMILES: CCC(C)(NC(=O)c1cc(Cl)cc(Cl)c1)C(=O)C(Br)Br (stereo not shown) [Compound 4]
EC50 ([3]; 24 hours, 25° C.): 0.1 µg/mL (≈ 0.224 µM)

EC50 [1]: 7 µg/mL (≈ 21.3 µM)
EC50 [2]: 2 µg/mL (≈ 6.08 µM)
SMILES: CCC(C)(NC(=O)c1cc(Cl)c2ncoc2c1)C(=O)CCl (stereo not shown) [Compound 16]
EC50 ([3]; 24 hours, 25° C.): 0.6 µg/mL (≈ 1.82 µM)
